Measurements taken from patent US20120276225A1, “PHYTOESTROGENIC NUTRACEUTICAL COMPOSITION FROM PALM LEAF EXTRACT” (UNIVERSITI PUTRA MALAYSIA, priority 2009, published 2012).

How the values were obtained:
[1] = tested on: vaginal epithelium in the immature female mice; conditions: cited from earlier work
[2] = tested on: vaginal epithelium and uterus of ovarectomized female Sprague-Dawley rats; experiment: Estrogenic activity in bilaterally ovarectomized rats (vaginal cornification, uterine wet weight); assay type: in vivo, rat; conditions: positive control gavaged daily 5 mg/kg BW
Method: Phytoestrogenic enhancing activities of PLE were evaluated in normal and ovariectomised rats at 150 and 300 mg/kg doses. Estrogenic activity of the alcoholic extract was assessed in bilaterally ovarectomized female Sprague-Dawley rats taking percentage vaginal cornification, and uterine wet weight as parameters of assessment. Ovarectomized female rats (9 rats per group) given distilled water were used as a negative control, while rats gavaged daily with 5 mg/kg BW diethylstilbesterol were used as a positive control. At the end of treatment period of 14 days, rats were euthanized; the uteri were dissected and weighed, thereafter.

CC1(C)[C@H]2C(=COc3cc(O)ccc32)[C@]2(O)C(=O)C[C@]3(O)C[C@H]1[C@H]2[C@H]3O [Miroestrol]
cornification of the vaginal epithelium [1]: produced cornification of the vaginal epithelium

CC/C(=C(/CC)c1ccc(O)cc1)c1ccc(O)cc1 [synthetic estrogen, diethylstilbesterol]
cornification of the vaginal epithelium [2]: induced a cornification of the vaginal epithelium as early as the third day of treatment
